Results from publication PMC6934184, “Selective DNA-PKcs inhibition extends the therapeutic index of localized radiotherapy and chemotherapy” (The Journal of Clinical Investigation, 2019).

Molecular target: T1, AMPK (A2/B2/G1) (Homo sapiens, UniProt P54646)
T1 construct: purchased Thermo Fisher Scientific (Life Technologies) SelectScreen
Test: SelectScreen LanthaScreen
Assay type: binding
Settings: read-out: % displacement
How it was run: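 NU5455 was profiled across the SelectScreen Broad panel of kinase activity and binding assays. Z'LYTE reactions such as CSF1R ran at apparent Km ATP, while the Adapta CAMK1 assay used ATP listed as 10. Values are given as percent.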

T1 sequence (P54646 whole entry): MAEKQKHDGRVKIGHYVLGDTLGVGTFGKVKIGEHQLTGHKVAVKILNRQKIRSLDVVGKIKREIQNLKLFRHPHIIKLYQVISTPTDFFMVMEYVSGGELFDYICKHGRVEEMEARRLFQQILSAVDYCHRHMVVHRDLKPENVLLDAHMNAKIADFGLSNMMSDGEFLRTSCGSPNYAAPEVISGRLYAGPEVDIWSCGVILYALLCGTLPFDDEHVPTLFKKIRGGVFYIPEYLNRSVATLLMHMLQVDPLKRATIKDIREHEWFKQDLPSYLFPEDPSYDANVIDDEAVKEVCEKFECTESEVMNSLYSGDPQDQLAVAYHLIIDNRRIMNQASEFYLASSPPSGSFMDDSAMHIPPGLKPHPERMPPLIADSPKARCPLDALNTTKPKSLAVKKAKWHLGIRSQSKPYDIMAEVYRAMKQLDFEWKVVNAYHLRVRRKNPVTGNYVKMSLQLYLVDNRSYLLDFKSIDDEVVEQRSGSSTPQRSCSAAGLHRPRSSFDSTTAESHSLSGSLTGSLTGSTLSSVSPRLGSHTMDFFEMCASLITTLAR
T1 sequence (O43741 whole entry partner): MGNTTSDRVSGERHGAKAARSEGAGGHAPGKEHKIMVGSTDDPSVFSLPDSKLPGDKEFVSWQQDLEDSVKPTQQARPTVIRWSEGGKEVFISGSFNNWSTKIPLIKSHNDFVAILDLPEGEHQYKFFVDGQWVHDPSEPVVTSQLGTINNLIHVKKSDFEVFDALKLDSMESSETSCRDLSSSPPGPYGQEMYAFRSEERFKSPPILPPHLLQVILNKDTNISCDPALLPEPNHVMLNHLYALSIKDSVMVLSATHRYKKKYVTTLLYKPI
T1 sequence (P54619 whole entry partner): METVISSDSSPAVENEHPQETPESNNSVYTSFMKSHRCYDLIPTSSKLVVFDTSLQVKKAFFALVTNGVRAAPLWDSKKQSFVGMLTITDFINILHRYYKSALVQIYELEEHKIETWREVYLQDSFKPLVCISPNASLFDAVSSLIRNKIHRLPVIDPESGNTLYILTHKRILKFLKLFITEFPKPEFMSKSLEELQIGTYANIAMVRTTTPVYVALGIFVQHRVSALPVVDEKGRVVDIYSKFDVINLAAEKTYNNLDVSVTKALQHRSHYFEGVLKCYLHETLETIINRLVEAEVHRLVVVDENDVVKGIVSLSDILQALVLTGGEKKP

Compound: CN(C(=O)CN1CCOCC1)c1ccc2sc3c(-c4cccc5c(=O)cc(N6CC7CCC(C6)O7)oc45)cccc3c2c1 [NU5455]
- inhibition at 1 µM: -2.3%
